Laboratory results: PubChem BioAssay AID248 (DTP/NCI, 2004)
Toxic doses and inconclusive results are not listed. Rule as the data show it: active = T/C of 150% or more; inactive = T/C below 125%.

Tested on: L1210 leukemia ip in BDF1 mice, survival T/C
Assay: NCI In Vivo Anticancer Drug Screen. Data for tumor model L1210 Leukemia (intraperitoneal) in B6D2F1 (BDF1) mice
Settings: endpoint: mean survival time, higher = longer survival
Outline: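 Antitumor effect is assessed in tumor-bearing animals. Survival in the compound arm is compared with a vehicle-dosed control arm and expressed as their quotient.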

Measured: T/C

CCCC(OC(C)=O)C(C)[N+](=O)[O-] (configuration not stated)
inactive: dose: 50.0 mg/kg/injection, schedule: Q01DX001 (ip), vehicle: saline with Tween-80 96 % of control | dose: 100.0 mg/kg/injection, schedule: Q01DX001 (ip), vehicle: saline with Tween-80 92 % of control | dose: 200.0 mg/kg/injection, schedule: Q01DX001 (ip), vehicle: saline with Tween-80 103 % of control

CC(C)c1cc(C(C)C)c(S(=O)(=O)/C=C/c2ccccc2)c(C(C)C)c1
inactive: dose: 100.0 mg/kg/injection, schedule: Q01DX001 (ip), vehicle: saline 104 % of control | dose: 100.0 mg/kg/injection, schedule: Q01DX009 (ip), vehicle: saline 91 % of control | dose: 100.0 mg/kg/injection, schedule: Q04DX003 (ip), vehicle: acetone 100 % of control | dose: 200.0 mg/kg/injection, schedule: Q01DX001 (ip), vehicle: saline 97 % of control | dose: 200.0 mg/kg/injection, schedule: Q01DX009 (ip), vehicle: saline 93 % of control | dose: 200.0 mg/kg/injection, schedule: Q04DX003 (ip), vehicle: acetone 97 % of control | dose: 400.0 mg/kg/injection, schedule: Q01DX001 (ip), vehicle: saline 92 % of control | dose: 400.0 mg/kg/injection, schedule: Q01DX009 (ip), vehicle: saline 89 % of control | dose: 400.0 mg/kg/injection, schedule: Q04DX003 (ip), vehicle: acetone 105 % of control
